Measured values taken from ChEMBL document CHEMBL1201862, “PubChem BioAssay data set” (2004).
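Results reflect a 48-hour exposure of cells in 96-well plates to compound at five concentrations. The concentration for 50% growth inhibition is given as GI50.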 Active and inactive are the calls of the source. Cut-off read from the data, not from the text of the source: active = GI50 up to about 1.1 µM and inactive = higher.

Key:
Assay in all cases: DTP human tumour cell line panel, 48 h
EKVX = test system: EKVX
ACHN = test system: ACHN
MCF7 = test system: MCF7
NCI-H522 = test system: NCI-H522
SNB-75 = test system: SNB-75
SR = test system: SR
OVCAR-4 = test system: OVCAR-4
UACC-62 = test system: UACC-62
IGROV-1 = test system: IGROV-1
COLO 205 = test system: COLO 205
T47D = test system: T47D
Malme-3M = test system: Malme-3M
A549 = test system: A549
SF-539 = test system: SF-539
M14 = test system: M14
HT-29 = test system: HT-29
SF-295 = test system: SF-295
MDA-MB-435 = test system: MDA-MB-435
OVCAR-8 = test system: OVCAR-8
HOP-62 = test system: HOP-62

Measured: GI50

Nc1ccccc1N/C(=C\C(=O)C(Cl)(Cl)Cl)c1ccccc1
inactive: EKVX 15.2 µM | ACHN 24.1 µM | MCF7 23.7 µM | NCI-H522 15.3 µM | SNB-75 37.8 µM | SR 28.2 µM | OVCAR-4 29.2 µM | UACC-62 17.5 µM | IGROV-1 5.6 µM | COLO 205 27.9 µM | T47D 20.7 µM | Malme-3M 16.8 µM | A549 28.8 µM | SF-539 18.8 µM | M14 20.1 µM | HT-29 27.4 µM | SF-295 36.6 µM | MDA-MB-435 30.9 µM | OVCAR-8 30.5 µM | HOP-62 23.6 µM

CCSc1nnc(Sc2c3ccccc3nc3ccccc23)s1
inactive: EKVX 11.6 µM | ACHN 5.19 µM | MCF7 3.92 µM | NCI-H522 2.37 µM | SNB-75 35.3 µM | SR 3.19 µM | OVCAR-4 16.9 µM | UACC-62 15 µM | IGROV-1 17.3 µM | COLO 205 2.78 µM | T47D 4.22 µM | Malme-3M 7.01 µM | A549 > 60.7 µM | SF-539 7.94 µM | M14 11.5 µM | HT-29 7.67 µM | SF-295 99.3 µM | MDA-MB-435 9.84 µM | OVCAR-8 20.3 µM | HOP-62 > 58.6 µM
